The target of this assay is CDK-2 (Homo sapiens, UniProt P24941). Briefly: CDK-2 inhibition, fluorescence polarization displacement assay.
Protocol: Binding assays were performed in a 384 well Costar NBS coated plate. […] The concentration of BMS-Alexa Fluor647 was 50 nM. Serial dilutions of compounds were added to 12 wells. The final buffer concentration was 10 mM Hepes, pH 7.5, 150 mM NaCl, and 1 mM DTT. Samples were incubated at room temperature for 15 minutes and then read in an Analyst HT instrument using an excitation and emission wavelength of 580 and 680 nm, respectively.
Turning to `COC(=O)[C@H](Cc1ccc(O)cc1)NC(=O)c1cc(C(=O)O)c2cc(/C=C/c3ccc(F)cc3)ccc2n1` [Compound 6], the IC50 was < 1 µM. The same measure for `COC(=O)[C@H](Cc1ccc(O)cc1)NC(=O)c1cc(C(=O)O)c2cc(CCc3ccc(C(F)(F)F)cc3)ccc2n1` [Compound 8]: < 1 µM; for `COC(=O)[C@H](Cc1ccc(O)cc1)NC(=O)c1cc(C(=O)O)c2cc(/C=C/C(C)(C)C)ccc2n1` [Compound 11]: < 1 µM; for `CNC(=O)[C@H](Cc1ccc(O)cc1)NC(=O)c1cc(C(=O)O)c2cc(/C=C/c3ccc(Cl)cc3)ccc2n1` [Compound 14]: < 1 µM. The same measure for `COC[C@H](Cc1ccc(O)cc1)NC(=O)c1cc(C(=O)O)c2cc(-c3cccc(Cn4ccccc4=O)c3)ccc2n1` [Compound 26]: < 1 µM; for `COC[C@H](Cc1ccc(O)cc1)NC(=O)c1cc(NS(=O)(=O)C(C)(C)C)c2cc(-c3cccc(COc4ccccn4)c3)ccc2n1` [Compound 27]: < 1 µM. The same measure for `COC(=O)[C@H](Cc1ccc(O)cc1)NC(=O)c1cc(C(=O)O)c2cc(-c3cccc(C(C)C)c3)ccc2n1` [Compound 30]: < 1 µM; for `COC(=O)[C@H](Cc1ccc(O)cc1)NC(=O)c1cc(C(=O)O)c2cc(CCc3ccc(F)cc3)ccc2n1` [Compound 31]: < 1 µM. Regarding `COC(=O)[C@H](Cc1ccc(O)cc1)NC(=O)c1cc(C(=O)O)c2cc(-c3cccc([N+](=O)[O-])c3)ccc2n1` [Compound 33], the IC50 was < 1 µM. The value for `CN(C)C(=O)[C@H](Cc1ccc(O)cc1)NC(=O)c1cc(C(=O)O)c2cc(/C=C/c3ccc(Cl)cc3)ccc2n1` [Compound 34] was < 1 µM; that for `COC(=O)[C@H](Cc1ccc(O)cc1)NC(=O)c1cc(C(=O)O)c2cc(-c3cccc(C#N)c3)ccc2n1` [Compound 36] was < 1 µM.

Take `COC(=O)[C@H](Cc1ccc(O)cc1)NC(=O)c1cc(C(=O)O)c2cc(-c3cc4ccccc4o3)ccc2n1` [Compound 38]: the concentration for half-maximal inhibition (IC50) is < 1 µM. The value for `COC(=O)[C@H](Cc1ccc(O)cc1)NC(=O)c1cc(C(=O)O)c2cc(-c3ccc(F)c(C)c3)ccc2n1` [Compound 41] was < 1 µM; that for `COC(=O)[C@H](Cc1ccc(O)cc1)NC(=O)c1cc(C(=O)O)c2cc(-c3cccc(-c4ccccc4)c3)ccc2n1` [Compound 42] was < 1 µM; that for `O=C(N[C@@H](Cc1ccc(O)cc1)C(=O)NC1CC1)c1cc(C(=O)O)c2cc(/C=C/c3ccc(Cl)cc3)ccc2n1` [Compound 44] was < 1 µM.

On to `COC(=O)[C@H](Cc1ccc(O)cc1)NC(=O)c1cc(C(=O)O)c2cc(-c3cccc(C)c3)ccc2n1` [Compound 48], for which the 50% inhibitory concentration (IC50) was < 1 µM.

`COC(=O)[C@H](Cc1ccc(O)cc1)NC(=O)c1cc(C(=O)O)c2cc(-c3ccc(C)c([N+](=O)[O-])c3)ccc2n1` [Compound 49]: the IC50 was < 1 µM. The value for `COC(=O)[C@H](Cc1ccc(O)cc1)NC(=O)c1cc(C(=O)O)c2cc(-c3ccc(F)c(Cl)c3)ccc2n1` [Compound 50] was < 1 µM; that for `COC(=O)[C@H](Cc1ccc(O)cc1)NC(=O)c1cc(C(=O)O)c2cc(-c3ccc(Oc4ccccc4)cc3)ccc2n1` [Compound 51] was < 1 µM; that for `COC(=O)[C@H](Cc1ccc(O)cc1)NC(=O)c1cc(C(=O)O)c2cc(CCC(C)(C)C)ccc2n1` [Compound 52] was < 1 µM. The value for `CCCC(Cc1ccc(O)cc1)NC(=O)c1cc(C(=O)O)c2cc(-c3cccc(C(F)(F)F)c3)ccc2n1` (centres unmarked) [Compound 54] was < 1 µM; that for `COC(=O)[C@H](Cc1ccc(O)cc1)NC(=O)c1cc(C(=O)O)c2cc(-c3cc4ccccc4s3)ccc2n1` [Compound 58] was < 1 µM; that for `COC(=O)[C@H](Cc1ccc(O)cc1)NC(=O)c1cc(C(=O)O)c2cc(CCc3ccccc3)ccc2n1` [Compound 60] was < 1 µM. The same measure for `O=C(NC(Cc1ccc(O)cc1)C1CCCCC1)c1cc(C(=O)O)c2cc(-c3cccc(C(F)(F)F)c3)ccc2n1` (centres unmarked) [Compound 63]: < 1 µM. Turning to `COC(=O)[C@H](Cc1ccc(O)cc1)NC(=O)c1cc(NS(C)(=O)=O)c2cc(-c3cccc(C(F)(F)F)c3)ccc2n1` [Compound 64], the concentration for half-maximal inhibition (IC50) was < 1 µM. The value for `COC(=O)[C@H](Cc1ccc(O)cc1)NC(=O)c1cc(C(=O)O)c2cc(-c3cc(C)cc(C)c3)ccc2n1` [Compound 67] was < 1 µM; that for `COC(=O)[C@H](Cc1ccc(O)cc1)NC(=O)c1cc(C(=O)O)c2cc(-c3ccc(Cl)c(Cl)c3)ccc2n1` [Compound 69] was < 1 µM. The value for `COC[C@H](Cc1ccc(O)cc1)NC(=O)c1cc(S(=O)(=O)O)c2cc(-c3cccc(C(F)(F)F)c3)ccc2n1` [Compound 71] was < 1 µM; that for `COC(=O)[C@H](Cc1ccc(O)cc1)NC(=O)c1cc(C(=O)O)c2cc(-c3ccc(C(C)C)cc3)ccc2n1` [Compound 72] was < 1 µM; that for `COC(=O)[C@H](Cc1ccc(O)cc1)NC(=O)c1cc(C(=O)O)c2cc(-c3ccc(OC)cc3)ccc2n1` [Compound 76] was < 1 µM. The value for `COC(=O)[C@H](Cc1ccc(O)cc1)NC(=O)c1cc(C(=O)O)c2cc(-c3cccs3)ccc2n1` [Compound 81] was < 1 µM; that for `COC(=O)[C@H](Cc1ccc(O)cc1)NC(=O)c1cc(C(=O)O)c2cc(-c3ccc(C)s3)ccc2n1` [Compound 82] was < 1 µM; that for `COC(=O)[C@H](Cc1ccc(O)cc1)NC(=O)c1cc(C(=O)O)c2cc(-c3ccc(Cl)cc3)ccc2n1` [Compound 83] was < 1 µM.

As to `O=C(N[C@@H](Cc1ccc(O)cc1)c1ncc[nH]1)c1cc(C(=O)O)c2cc(-c3cccc(C(F)(F)F)c3)ccc2n1` [Compound 86], the half-maximal inhibitory concentration (IC50) was < 1 µM.

For the molecule `COC[C@H](Cc1ccc(O)cc1)NC(=O)c1cc(-c2nnn[nH]2)c2cc(-c3cccc(C(F)(F)F)c3)ccc2n1` [Compound 87], the IC50 was < 1 µM. The same measure for `COC(=O)[C@H](Cc1ccc(O)cc1)NC(=O)c1cc(C(=O)O)c2cc(-c3cccc(OC)c3)ccc2n1` [Compound 91]: 1 to 40 µM; for `COC(=O)[C@H](Cc1ccc(O)cc1)NC(=O)c1cc(C(=O)O)c2cc(-c3ccc(Cl)c(F)c3)ccc2n1` [Compound 92]: 1 to 40 µM; for `COC(=O)[C@H](Cc1ccc(O)cc1)NC(=O)c1cc(C(=O)O)c2cc(-c3cccc(F)c3)ccc2n1` [Compound 93]: 1 to 40 µM.

For `COC[C@H](Cc1ccc(O)cc1)NC(=O)c1cc(C(=O)NS(C)(=O)=O)c2cc(-c3cccc(C(F)(F)F)c3)ccc2n1` [Compound 95], the half-maximal inhibitory concentration (IC50) was in the range of 1 to 40 µM. The same measure for `NC[C@H](Cc1ccc(O)cc1)NC(=O)c1cc(C(=O)O)c2cc(CCc3ccc(Cl)cc3)ccc2n1` [Compound 97]: 1 to 40 µM. The same measure for `COC[C@H](Cc1ccc(O)cc1)NC(=O)c1cc(NS(=O)(=O)C(C)(C)C)c2cc(-c3cccc(COc4cccc[n+]4[O-])c3)ccc2n1` [Compound 98]: 1 to 40 µM; for `O=C(N[C@@H](Cc1ccc(O)cc1)c1cnco1)c1cc(C(=O)O)c2cc(-c3cccc(C(F)(F)F)c3)ccc2n1` [Compound 99]: 1 to 40 µM; for `COC(=O)[C@H](Cc1ccc(O)cc1)NC(=O)c1cc(C(=O)O)c2cc(-c3ccc(C)cc3)ccc2n1` [Compound 103]: 1 to 40 µM.

In the case of `COC(=O)[C@H](Cc1ccc(O)cc1)NC(=O)c1cc(C(=O)O)c2cc(-c3cccc(C(C)=O)c3)ccc2n1` [Compound 104], the IC50 lay within 1 to 40 µM.

The values are drawn from patent publication EP1931657B1, “NOVEL HIGH AFFINITY QUINOLINE-BASED KINASE LIGANDS” (Merck Sharp & Dohme Corp., priority 2005, dated 2007).
